What was measured:
[1] = system: MMP1 expression by activated primary synovial fibroblasts; experiment: 'MMP assay': MMP1 expression by complex trigger activated synovial fibroblasts (MMP1 ELISA); type: cell-based; conditions: Homo sapiens, Fibroblast, RASFs, complex trigger, 48 hrs, MMP1 ELISA
[2] = system: TNFα release by human PBMCs; experiment: Cytokine release by LPS stimulated human PBMCs (TNFα ELISA); type: cell-based; conditions: PBMC, 24 h, Table 5, LPS 1 μg/mL
Procedure: For the assay PBMCs are seeded at 2.5E6 cells/mL in 160 μL in 96-well plates (Nunc). Serial dilution of the test compounds are made first in DMSO (Sigma) and then diluted 50-fold in M199 medium (Gibco) containing 1% heat-inactivated FBS. Compounds are further 1/10 diluted in the assay plates to obtain final DMSO concentration of 0.2%. Cells are preincubated with the compounds for 1 hr at 37° C., 5% CO2. Then, cells are stimulated with LPS (Escherichia coli serotype 026:B6, Cat. No. L2654, Sigma) that is added in a volume of 20 μL to a final concentration of 1 μg/mL and cells are further cultured for 24 hr. The plates are centrifuged and the supernatant is collected and stored at −80° C. until analysis of appropriate dilutions in ELISAs.
After 4 hr incubation at RT, blocking buffer is removed and plates are washed once with PBST (1×PBS with 0.05% Tween-20 (Sigma)). Then, 40 μL of sample is transferred to the ELISA plates and plates are incubated at 4° C. […] After 2 h of incubation at RT, plates are washed as described above and 35 μL/well of a 1/2000 dilution of streptavidin-HRP conjugate (Cat. No. SNN2004, Biosource) in buffer D is added. After 45 min, plates are washed as described above and incubated for 5 min with 50 μL/well BM Chemiluminescence ELISA Substrate POD (Roche). Readout is performed on the Luminoscan Ascent Luminometer (Labsystems) with an integration time of 100 msec delivering raw data (RLU: relative luminescence units). The following controls are included in the experiments, a maximal signal control, in which the cells are activated by LPS but only the 0.2% DMSO vehicle (and thus no compound) is added. […] A minimal signal control is also included in these experiments. Here, cells are not triggered. […] Where compounds are tested at 8 concentrations (1/3 serial dilution), EC50-values can be calculated by curve fitting of the means of the PIN data achieved for a compound at each test concentration.

MAPKAPK5 = target: T1, MAPKAPK5 (Homo sapiens, UniProt Q8IW41); experiment: MAPKAP-K5 assay (FlashPlate kinase assay)
T1 sequence (Q8IW41 1-471 isoform Q8IW41-2): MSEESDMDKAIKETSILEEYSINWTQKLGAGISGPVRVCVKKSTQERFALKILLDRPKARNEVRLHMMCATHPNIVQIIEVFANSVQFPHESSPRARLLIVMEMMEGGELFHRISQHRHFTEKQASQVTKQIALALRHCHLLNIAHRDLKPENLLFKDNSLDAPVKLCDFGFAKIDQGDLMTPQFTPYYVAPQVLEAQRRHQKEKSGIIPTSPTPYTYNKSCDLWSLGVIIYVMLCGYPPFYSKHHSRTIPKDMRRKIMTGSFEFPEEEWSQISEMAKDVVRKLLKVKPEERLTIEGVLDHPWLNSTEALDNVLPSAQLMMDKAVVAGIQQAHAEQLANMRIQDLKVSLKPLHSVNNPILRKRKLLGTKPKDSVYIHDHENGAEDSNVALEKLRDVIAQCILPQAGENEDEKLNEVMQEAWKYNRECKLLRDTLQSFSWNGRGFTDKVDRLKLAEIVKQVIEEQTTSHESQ
Procedure: MAPKAP-K5 reactions are performed in FlashPlate format using 0.1 or 0.2 μCi 33P-ATP; 0.6 μM ATP; 1 mU MAPKAP-K5; 3 μM MAPKAP-K5 peptide substrate, incubated at room temperature for 30 minutes.
The MAPKAP-K5 kinase reaction is performed in a 384 well polypropylene plate (Matrix Technologies) and then transferred to a streptavidin-coated 384 well flashplate (Perkin-Elmer).
To wells containing 2 μL test compound or standard inhibitor, 13 μL Enzyme mix or diluent are added using a Hydra (Robbins Scientific).
Reactions are started by addition of 10 μL of [2,5×] substrate cocktail using a Multidrop (Thermo-Labsystems), to give final concentrations in the assay of:
Plates are incubated at room temperature for 30 minutes.
Reactions are terminated by the addition of 25 μL EDTA (50 mM) to each well using a Micro-fill (Biotek).
Reactions are transferred to a streptavidin-coated flashplate using a Zymark robotic system. Plates are incubated for 60 minutes at room temperature.
All wells are washed 3 times with 100 μl phosphate buffered saline using a Tecan plate washer.
Radioactivity is determined by scintillation counting of the flashplate (empty wells) on a Packard TopCount.
Enzyme Mix: • Enzyme • 50 mM Tris Hcl (pH 7.5) • 0.1 mM EGTA • 2 mM DTT • 1 mg/mL BSA
Reaction Buffer: • 50 mM Tris Hcl (pH 7.5) • 0.1 mM EGTA • 10 mM Magnesium acetate • 2 mM DTT

Compound	IC50 (MAPKAPK5)	EC50 ([1]; Table 3)	EC50 [2]	EC50 ([1]; Table 4)
Cc1sc(C(N)=O)cc1-c1cnc(Nc2ccc(N3CCN(C(C)C)CC3)nc2)c2ncnn12 [Compound 96]	> 1 µM	> 1 µM		
O=C(NCc1ccccn1)c1cccc(Nc2ncc(-c3cn[nH]c3)n3ncnc23)c1 [Compound 124, N-Pyridin-2-ylmethyl 3-[5-(1H-pyrazol-4-yl)-[1,2,4]triazolo[1,5-a]pyrazin-8-ylamino]benzamide]	> 1 µM			> 1 µM
CC(=O)N(C)C1CCN(C(=O)c2ccc(Nc3ncc(-c4cn[nH]c4)n4ncnc34)cc2)C1 (stereo not shown) [Compound 143]	0.501 to 1 µM			> 1 µM
O=C(c1ccc(Nc2ncc(-c3cn[nH]c3)n3ncnc23)cc1)N1CC=CC1 [Compound 140]	0.501 to 1 µM			> 1 µM
O=C(NCc1cccnc1)c1ccc(Nc2ncc(-c3cc[nH]c(=O)c3)n3ncnc23)cc1 [Compound 119, 4-(5-(2-Oxo-1,2-dihydropyridin-4-yl)-[1,2,4]triazolo[1,5-a]pyrazin-8-ylamino)-N-(pyridin-3-ylmethyl)benzamide]	> 1 µM			> 1 µM
COCCN(C)C(=O)c1ccc(Nc2ncc(-c3cn[nH]c3)n3ncnc23)cc1 [Compound 156]	> 1 µM			> 1 µM
Nc1nccn1-c1ncc(-c2ccc3c(c2)CNC3=O)n2ncnc12 [Compound 168]	> 1 µM	> 1 µM		
O=C1NCc2cc(-c3cnc(NCC4CCCCC4)c4ncnn34)ccc21 [Compound 184]	0.101 to 0.5 µM	> 1 µM		
O=C(NCCc1ccc(O)cc1)c1ccc(Nc2ncc(-c3cn[nH]c3)n3ncnc23)cc1 [Compound 151]	> 1 µM			> 1 µM
CN(Cc1ccccc1)C(=O)c1cccc(Nc2ncc(-c3cn[nH]c3)n3ncnc23)c1 [Compound 134, N-Benzyl-N-methyl 3-[5-(1H-pyrazol-4-yl)-[1,2,4]triazolo[1,5-a]pyrazin-8-ylamino]benzamide]	> 1 µM			0.501 to 1 µM
CSCCNC(=O)c1ccc(Nc2ncc(-c3cn[nH]c3)n3ncnc23)cc1 [Compound 160]	0.501 to 1 µM			> 1 µM
CCNC(=O)c1cccc(Nc2ncc(-c3cn[nH]c3)n3ncnc23)c1 [Compound 129, N-Ethyl 3-[5-(1H-pyrazol-4-yl)-[1,2,4]triazolo[1,5-a]pyrazin-8-ylamino]benzamide]	> 1 µM			> 1 µM
CC(C)N1CCN(C(=O)c2cccc(Nc3ncc(-c4cn[nH]c4)n4ncnc34)c2)CC1 [Compound 127, (4-Isopropylpiperazin-1-yl)-{3-[5-(1H-pyrazol-4-yl)-[1,2,4]triazolo[1,5-a]pyrazin-8-ylamino]phenyl}methanone]	0.501 to 1 µM			> 1 µM
CC(C)N1CCN(c2ccc(Nc3ncc(-c4cccc5c4CNC5=O)n4ncnc34)cc2)CC1 [Compound 97]	> 1 µM	> 1 µM		
COc1cc(Nc2ncc(-c3cn[nH]c3)n3ncnc23)ccc1C(=O)NCc1ccc(C)nc1 [Compound 120, 2-Methoxy-N-(6-methylpyridin-3-yl)methyl-4-[5-(1H-pyrazol-4-yl)-[1,2,4]triazolo[1,5-a]pyrazin-8-ylamino]-benzamide]	> 1 µM			> 1 µM
O=C1NCc2cc(-c3cnc(NC4CCC4)c4ncnn34)ccc21 [Compound 182]	0.101 to 0.5 µM	> 1 µM		
O=C(c1ccc(Nc2ncc(-c3cn[nH]c3)n3ncnc23)cc1)N1CCC(N2CCCCC2)CC1 [Compound 165]	> 1 µM			> 1 µM
O=C(NCC1CCCO1)c1ccc(Nc2ncc(-c3cn[nH]c3)n3ncnc23)cc1 (stereo not shown) [Compound 158]	0.501 to 1 µM			> 1 µM
CC(C)N1CCN(c2ccc(Nc3ncc(-c4cccc5c4CNC5=O)n4ncnc34)cn2)CC1 [Compound 98]	> 1 µM	> 1 µM		
CCN(CC)C(=O)c1cccc(Nc2ncc(-c3cn[nH]c3)n3ncnc23)c1 [Compound 125]	> 1 µM			> 1 µM

Further lines, with some results ahead:

IC50 (MAPKAPK5)	Compound	EC50 ([1]; Table 3)	EC50 [2]	EC50 ([1]; Table 4)
> 1 µM	c1nc2c(Nc3ccc(OCCN4CCOCC4)cc3)ncc(-c3cn[nH]c3)n2n1 [Compound 20]	> 1 µM	> 1 µM	
0.101 to 0.5 µM	NC(=O)c1cc(-c2cnc(Nc3ccc(N4CCOCC4)nc3)c3ncnn23)cs1 [Compound 47, 4-[8-(6-[Morpholin-4-yl]pyridin-3-ylamino)-[1,2,4]triazolo[1,5-a]pyrazin-5-yl]thiophene-2-carboxylic acid amide]	0.501 to 1 µM	> 1 µM	
> 1 µM	O=C1NCc2cc(-c3cnc(NC4CCNCC4)c4ncnn34)ccc21 [Compound 185]	> 1 µM		
> 1 µM	c1nc2c(Nc3ccc(N4CCOCC4)cc3)ncc(-c3ccc4cn[nH]c4c3)n2n1 [Compound 93]	> 1 µM		
> 1 µM	CCN(CCOC)C(=O)c1ccc(Nc2ncc(-c3cn[nH]c3)n3ncnc23)cc1 [Compound 157]			> 1 µM
> 1 µM	O=C(NCc1ccc(O)cc1)c1cccc(Nc2ncc(-c3cn[nH]c3)n3ncnc23)c1 [Compound 131, N-(4-Hydroxybenzyl) 3-[5-(1H-pyrazol-4-yl)-[1,2,4]triazolo[1,5-a]pyrazin-8-ylamino]benzamide]			0.501 to 1 µM
> 1 µM	CCOC(=O)CN(Cc1ccccc1)C(=O)c1ccc(Nc2ncc(-c3cn[nH]c3)n3ncnc23)cc1 [Compound 154]			> 1 µM
0.001 to 0.1 µM	CC(C)N1CCN(c2ccc(Nc3ncc(-c4coc(C(N)=O)c4)n4ncnc34)cc2)CC1 [Compound 88, 4-(8-(4-(4-Isopropylpiperazin-1-yl)phenylamino)-[1,2,4]triazolo[1,5-a]pyrazin-5-yl)furan-2-carboxamide]	0.501 to 1 µM		
> 1 µM	NC(=O)c1cccc2c(-c3cnc(Nc4ccc(N5CCOCC5)cc4)c4ncnn34)csc12 [Compound 80, 3-[8-(4-Morpholin-4-ylphenylamino)-[1,2,4]triazolo[1,5-a]pyrazin-5-yl]-benzo[b]thiophene-7-carboxylic acid amide]	0.101 to 0.5 µM		
> 1 µM	O=C(Nc1ccc(N2CCOCC2)nc1)c1ccc(Nc2ncc(-c3cn[nH]c3)n3ncnc23)cc1 [Compound 194]			0.501 to 1 µM
> 1 µM	Cc1sc(C(N)=O)cc1-c1cnc(Nc2ccc(N3CCN(C(C)C)CC3)cc2)c2ncnn12 [Compound 95]	> 1 µM		
> 1 µM	CCC(COC)NC(=O)c1ccc(Nc2ncc(-c3cn[nH]c3)n3ncnc23)cc1 (stereo not shown) [Compound 149]			> 1 µM
0.101 to 0.5 µM	O=C(N[C@H]1CCN(Cc2ccccc2)C1)c1ccc(Nc2ncc(-c3ccc4c(c3)CNC4=O)n3ncnc23)cc1 [Compound 196]			> 1 µM
0.501 to 1 µM	NC(=O)c1cc(-c2cnc(Nc3ccc(NC(=O)Cc4ccccc4)nc3)c3ncnn23)cs1 [Compound 167, 4-[8-(6-Phenylacetylamino-pyridin-3-ylamino)-[1,2,4]triazolo[1,5-a]pyrazin-5-yl]-thiophene-2-carboxylic acid amide]			> 1 µM
0.101 to 0.5 µM	CC(C)N1CCN(c2ccc(Nc3ncc(-c4ccc5c(c4)CNC5=O)n4ncnc34)cc2)C(=O)C1 [Compound 112, 5-(8-(4-(4-Isopropyl-2-oxopiperazin-1-yl)phenylamino)-[1,2,4]triazolo[1,5-a]pyrazin-5-yl)isoindolin-1-one]	> 1 µM		
> 1 µM	O=C(Nc1ccc(N2CCOCC2)nc1)c1ccc(Nc2ncc(-c3ccc4c(c3)CNC4=O)n3ncnc23)cc1 [Compound 193]			> 1 µM
0.501 to 1 µM	O=C(c1ccc(Nc2ncc(-c3cn[nH]c3)n3ncnc23)cc1)N1CC=CCC1 [Compound 159]			> 1 µM
